Tested on: BHK-21 DENV2 CPE protection, ATP luminescence, 5 d
Test: Dengue virus 2 cytopathic effect protection, dose response, BHK-21 cells, ATP luminescence, cherry-pick (AID 687031)

`COC(=O)[C@@H]1[C@@H](CO)[C@@H]2Cn3c(ccc(C4=CCCC4)c3=O)[C@H]1N2Cc1ccccn1` and `C[C@H](NC(=O)[C@H]1N[C@H]2c3ccc(-c4cccnc4)c(=O)n3C[C@H]2[C@@H]1CO)c1ccccc1` are within 1.5-fold of each other in AC30: 17.2 µM for the first, 12.5 µM for the second.

Compared with `C[C@H](NC(=O)CCCOc1ccc(Cl)cc1Cl)c1nnc2ccccn12`, `CSc1ccccc1OCc1cc(C(=O)N2CCc3[nH]cnc3C2c2ccccn2)no1` (centres undefined) is 1.6-fold lower in AC30: 16.2 µM for the first, 9.97 µM for the second.

`CCc1c(C2(O)CCCCC2)[nH]c2c(C(=O)OC)cc(Cl)cc12` and `Cc1cc(F)cc(-c2cc(C(=O)NCC3CCCCC3)[nH]n2)c1` are within 1.5-fold of each other in AC30: 12.3 µM for the first, 10 µM for the second.

`O=C1[C@@H](Oc2ccccc2)[C@@H](c2ccncc2)N1c1ccccc1` and `OC(CSc1nnnn1-c1ccccc1)Cn1c2ccccc2c2ccccc21` (centres undefined) are within 1.5-fold of each other in AC30: 14.2 µM for the first, 18.8 µM for the second.

First: Cc1cc(OC(C)C(=O)NC2CC(C)(C)NC(C)(C)C2)c2c(C)c(C)c(=O)oc2c1 (centres undefined)
Second: Cc1noc(C)c1NC(=O)Nc1ccc2c(c1)C(=O)N([C@@H](C)CO)C[C@@H](C)[C@@H](CN(C)S(C)(=O)=O)OCCCC[C@@H](C)O2
The AC30 of the first is 6.4-fold lower: 2.89 µM for the first, 18.6 µM for the second.

Compared with `CCOc1ccc2[nH]cc(S(=O)(=O)c3ccc(C)cc3)c(=O)c2c1`, `COc1cccc(-c2ccc(C3[C@@H]4CN(S(=O)(=O)c5cn(C)cn5)C[C@H]3N4)cc2)c1` (some centres undefined) is 1.7-fold lower in AC30: 13 µM for the first, 7.87 µM for the second.

Compared with `COC(=O)[C@H]1CN(C(=O)c2ccccc2)C(=O)N1`, `O=C(C1CCOCC1)N1C[C@H]2[C@@H](c3ccccc31)[C@@H](CO)N2C(=O)c1ccccc1` is 3.7-fold higher in AC30: 5.13 µM for the first, 18.8 µM for the second.

`CC1CCN(CCOc2ccc(OCc3ccccc3)cc2)CC1` and `CC1CCCN(C(=O)c2ccc(S(=O)(=O)Nc3ccccc3Cl)cc2)C1` (centres undefined) are within 1.5-fold of each other in AC30: 11.3 µM for the first, 13.5 µM for the second.

`C[C@H](CO)N1C[C@H](C)[C@H](CN(C)C(=O)Nc2ccc(-c3ccccc3)cc2)OCc2ccccc2-c2c(n(C)c3ccccc23)C1=O` and `C[C@@H]1CCCCO[C@H](CN(C)S(=O)(=O)c2ccccc2)[C@@H](C)CN([C@@H](C)CO)C(=O)c2cc(NC(=O)c3ccncc3)ccc2O1` are within 1.5-fold of each other in AC30: 17.7 µM for the first, 17.6 µM for the second.

Going from `Cc1cc(F)ccc1C(O)c1ncc(-c2ccccc2C(F)(F)F)[nH]1` (centres undefined) to `FC(F)(F)c1cccnc1Oc1ccc(C2=NCCS2)cc1`, the AC30 falls from 18.4 µM to 8.01 µM (2.3-fold).

Going from `NC(=O)c1ccsc1NC(=O)COC(=O)[C@@H]1CCCN1C(=O)c1cccs1` to `CC1CCN(C(=O)COC(=O)CNC(=O)c2ccccc2F)CC1`, the AC30 rises from 11 µM to 19.4 µM (1.8-fold).

`O=C(O)C1C2C=CC(C2)C1C(=O)NCc1ccccc1` (centres undefined) and `CCN(CC(=O)NCC(=O)Nc1cccc(C)c1C)Cc1ccccc1` are within 1.5-fold of each other in AC30: 15.5 µM for the first, 19.3 µM for the second.

First: CCNS(=O)(=O)c1ccc(Br)c(C(=O)OC(C)C(=O)NCC2CCCCC2)c1 (centres undefined)
Second: CN(C)CC(=O)Nc1ccc2c(c1)[C@@H]1C[C@@H](CC(=O)NC3CCCCC3)O[C@H](CO)[C@@H]1O2
The AC30 of the first is 3.6-fold lower: 2.25 µM for the first, 8.06 µM for the second.

`Cc1ccc(C(=O)NCC(=O)NCC(c2cccs2)N2CCOCC2)cc1C` (centres undefined) and `Cc1cc(C)cc(NC(=O)Cn2nnc(C(=O)NCc3cccs3)c2N)c1` are within 1.5-fold of each other in AC30: 14.8 µM for the first, 13.3 µM for the second.

`COCCNC(=O)CCC1CCN(C/C=C/c2ccccc2OC)CC1` and `COc1ccc(CN2CCNC(=O)C2CC(=O)NCC2CCOCC2)c(C)c1C` (centres undefined) are within 1.5-fold of each other in AC30: 19.3 µM for the first, 15.7 µM for the second.

`CC1CCCC(NC(=O)COC(=O)c2ccccc2Sc2ccccc2C#N)C1C` (centres undefined) and `CC(C)[C@H](NC(=O)N1C[C@H]2C[C@@H](C1)c1cccc(=O)n1C2)C(=O)Nc1ccccc1F` are within 1.5-fold of each other in AC30: 12.7 µM for the first, 16.2 µM for the second.

First: CCCNC(=O)C[C@H]1CC[C@@H]2[C@H](COC[C@@H](O)CN2C(=O)c2ccccn2)O1
Second: CCC[C@@H]1CCCO[C@@](C(=O)NCc2ccccn2)(C(F)(F)F)C1
The AC30 of the first is 1.7-fold higher: 17.3 µM for the first, 10 µM for the second.

`COc1ccc(C(N)c2csc(Nc3cc(Oc4ccccc4)ncn3)n2)cc1` (centres undefined) and `Oc1cccc2nc3ccccc3nc12` are within 1.5-fold of each other in AC30: 17.4 µM for the first, 14.4 µM for the second.

`O=S(=O)(c1ccc2c(c1)OCCO2)N1CCCN(S(=O)(=O)c2c(F)cccc2F)CC1` and `Nc1ncccc1C(=O)OCC(=O)N1CCN(S(=O)(=O)c2ccc(Cl)cc2)CC1` are within 1.5-fold of each other in AC30: 17.5 µM for the first, 19 µM for the second.

`COC(=O)N1CCCCC1c1cc(C(=O)Nc2ccc(OC)cc2C)no1` (centres undefined) and `CC(=O)N1CCN(C(=O)COC(=O)COc2c(C)cc(C)cc2C)CC1` are within 1.5-fold of each other in AC30: 13 µM for the first, 11.7 µM for the second.

`Cn1cnc(S(=O)(=O)N[C@@H]2C=C[C@H](CC(=O)N3CCN(c4ccccc4)CC3)O[C@@H]2CO)c1` and `CCN(CC)CC(=O)N1CCCC(N2CCN(c3cccc(C(F)(F)F)c3)CC2)C1` (centres undefined) are within 1.5-fold of each other in AC30: 17 µM for the first, 19.1 µM for the second.

First: Cc1c(C(=O)OC(C)C)sc(N)c1C(=O)OC(C)C
Second: CCOC(=O)N1CCN(C(C(=O)NC2CCCC2)C(C)C)CC1 (centres undefined)
The AC30 of the first is 2-fold higher: 18.6 µM for the first, 9.37 µM for the second.

Going from `Cc1ccccc1S(=O)(=O)N1CC[C@@H]2[C@H](CO)Nc3ccc(-c4cccc(C#N)c4)cc3[C@@H]21` to `O=C(c1ccccc1)N1CC[C@@H]2[C@H](CO)Nc3ccc(C#Cc4cccc(F)c4)cc3[C@@H]21`, the AC30 falls from 15.9 µM to 3.21 µM (5-fold).

Compared with `c1ccc(C2CC2)c(OCC2=NCCN2)c1`, `CS(=O)(=O)N1C[C@@H]2N[C@H](C1)[C@@H]2c1ccc(-c2ccccc2)cc1` is 1.7-fold lower in AC30: 9.54 µM for the first, 5.51 µM for the second.

With `Cc1cccc([C@@H]2[C@@H]3C(=O)N(C)C(=O)[C@@H]3[C@@H]3C(=O)Nc4ccccc4C(=O)N23)c1` the AC30 was 18.7 µM.
